Source: patent US6599917B1, “Quinuclidine compounds and drugs containing the same as the active ingredient” (priority 1999, dated 2003)

Tested on: cholesterol biosynthesis
Assay: Measurement of cholesterol biosynthesis inhibitive activity in a rat
Format: in vivo
Details: 2 h; male SD rat, oral, dose 2 mg/kg, inhibition rate to control group
Procedure: Measurement of Cholesterol Biosynthesis Inhibitive Activity in a Rat
(I) An SPF grade male SD rat (4 weeks age, SLC) was bred for more than one week in a day-night-reversal room and subjected to an experiment made in the daytime. The compound dissolved in a 2% Tween 80 solution was administered (5 ml/kg) to the rat using an oral sonde. After one hour, a [1-^14C]Acetic acid, sodium salt (1.67-2.22 GBq/mmol, 37 MBq/ml, NEN) prepared by diluting to 1.85 MBq/ml by using physiological saline was intraabdominally administered (300 μ1/animal). After one hour, the rat was anesthetized by diethyl ether to carry out exsanguination from the aorta abdominalis. The collected blood was centrifuged at 3000 rpm for 10 minutes to prepare blood plasma.
(II) 1 ml of 4N KOH and 1 ml of ethanol were added to 2 ml of the blood plasma, which was then incubated at 65° C. for one hour and there after, 3 ml of petroleum ether was added. The plasma was shaken for 30 minutes. After the water phase was separated from the organic phase by centrifugation, it was frozen at −80° C. and the radiative activity of the organic phase was measured using a liquid scintillation counter. Or the organic phase was evaporated to dryness using nitrogen gas and the residue was dissolved as a marker in 25 µl of chloroform containing squalene, farnesol and cholesterol. This sample was applied to a TCL plate (Merck) and developed using toluene and isopropyl ether (1:1) for 15 to 20 minutes. A band of cholesterol was cut from the plate to measure the radiative activity by using a liquid scintillation counter. The cholesterol biosynthesis inhibition activity was expressed by an inhibition rate (%) to a control group.

| Molecule | inhibition in vivo at 2 mg/kg [%] |
| --- | --- |
| CO[C@@H]1CN(c2ccc(C#C[C@@]3(O)CN4CCC3CC4)c(Cc3ccccc3)n2)C[C@H]1OC [Example 104, (3R)-3-[2-Benzyl-6-[(3R,4R)-3,4-dimethoxypyrrolidine-1-yl)-3-pyridyl]ethynyl-3-quinuclidinol] | 88 |

Same assay, conditions: 2 h; male SD rat, oral, dose 3 mg/kg, inhibition rate to control group

| Molecule | inhibition in vivo at 3 mg/kg [%] |
| --- | --- |
| COCCOc1ccc(C#CC2(O)CN3CCC2CC3)c(Cc2ccccc2)n1 (stereo not drawn) [Example 12, 3-[2-Benzyl-6-(2-methoxyethyloxy)-3-pyridyl)ethynyl-3-quinuclidinol] | 78 |
| COCCCNc1ccc(C#CC2(O)CN3CCC2CC3)c(Cc2ccccc2)n1 (stereo not drawn) [Example 11, 3-[2-Benzyl-6-(3-methoxypropylamino)-3-pyridyl)ethynyl-3-quinuclidinol] | 72 |
| O=C1[C@H](O)CCN1c1ccc(C#C[C@@]2(O)CN3CCC2CC3)c(Cc2ccccc2)n1 [Example 142, (3R)-3-[2-Benzyl-6-[(3R)-3-hydroxy-2-pyrrolidinone-1-yl]-3-pyridyl]ethynyl-3-quinuclidinol] | 82 |
| COCCOc1cc(Cc2ccccc2)c(C#CC2(O)CN3CCC2CC3)cn1 (stereo not drawn) [Example 6, 3-[4-Benzyl-2-(2-methoxyethoxy)-5-pyridyl]ethynyl-3-quinuclidinol] | 73 |
| COCCOc1ccc(C#C[C@@]2(O)CN3CCC2CC3)c(Cc2ccccc2)n1 [Example 147, (3R)-3-[2-Benzyl-6-(2-methoxyethyl)oxy-3-pyridyl]ethynyl-3-quinuclidinol] | 87 |
| CO[C@@H]1CN(c2ccc(C#C[C@@]3(O)CN4CCC3CC4)c(Cc3ccccc3)n2)C(=O)[C@@H]1OC [Example 123, (3R)-3-[2-Benzyl-6-[(3R,4R)-3,4-dimethoxy-2-pyrrolidinone-1-yl]-3-pyridyl]ethynyl-3-quinuclidinol] | 86 |
| COCCCOc1ccc(C#CC2(O)CN3CCC2CC3)c(Cc2ccccc2)n1 (stereo not drawn) [Example 13, 3-[2-Benzyl-6-(3-methoxypropyloxy)-3-pyridyl]ethynyl-3-quinuclidinol] | 87 |

Same assay, conditions: male SD rat, oral, dose 3 mg/kg, inhibition rate to control group

| Molecule | Cholesterol biosynthesis inhibitive activity inhibition (%) |
| --- | --- |
| C[C@H](NC(=O)OC(C)(C)C)C(=O)OCCCOc1ccc(C#CC2(O)CN3CCC2CC3)c(Cc2ccccc2)n1 (stereo partly drawn) [Example 169, 3-[2-Benzyl-6-[3-[N-(tert-butoxycarbonyl)aranyloxy]propyl]oxy-3-pyridyl]ethynyl-3-quinuclidinol] | 92 |
| COC(=O)CCC(=O)OCCCOc1ccc(C#CC2(O)CN3CCC2CC3)c(Cc2ccccc2)n1 (stereo not drawn) [Example 168, 3-[2-Benzyl-6-[3-(3-methoxycarbonylpropanoyloxy)propyl]oxy-3-pyridyl]ethynyl-3-quinclidinol] | 89 |

Target: T1, squalene synthesizing enzyme (Rattus norvegicus, UniProt Q02769)
T1 construct: The liver was excised from a male Spraugue-Dawly rat; from tissue; host or cells: liver microsome fraction of male Sprague-Dawley rat (8 to 9 weeks)
T1 sequence (Q02769 1-416): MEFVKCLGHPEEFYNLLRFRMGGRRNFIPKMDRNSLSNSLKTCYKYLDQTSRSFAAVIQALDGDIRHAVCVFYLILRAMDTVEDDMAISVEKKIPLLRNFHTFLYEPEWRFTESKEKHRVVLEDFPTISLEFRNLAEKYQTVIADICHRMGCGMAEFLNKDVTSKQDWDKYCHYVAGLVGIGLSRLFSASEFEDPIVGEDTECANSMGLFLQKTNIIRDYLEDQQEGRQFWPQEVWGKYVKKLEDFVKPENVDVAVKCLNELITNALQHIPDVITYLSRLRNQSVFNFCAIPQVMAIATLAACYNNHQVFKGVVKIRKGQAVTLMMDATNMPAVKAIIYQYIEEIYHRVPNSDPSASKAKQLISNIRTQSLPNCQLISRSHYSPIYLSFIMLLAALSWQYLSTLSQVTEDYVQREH
Assay: Measurement of squalene synthesizing enzyme inhibitive activity by using a rat liver microsome
Format: biochemical
Details: [3H]-farnesylpyrophosphoric acid
Procedure: Measurement of Squalene Synthesizing Enzyme Inhibitive Activity by Using a Rat Liver Microsome
(I) The reaction was run on a scale of 500 μ1. 200 µl of a solution containing 125 mM tris-hydrochloric acid (pH: 7.3), 2.5 mM magnesium chloride, 5 mM potassium fluoride and 10 mM reduction type nicotinamidoadenine dinucleotide phosphoric acid, 100 µl of the specimen solution with a 5-fold concentration, 100 µl of distilled water and 50 µl of 0.4 to 1 mg/ml rat liver microsome prepared by the following method were mixed.
(II) The above mixture was pre-incubated at 37° C. for 10 minutes and thereafter, 50 µl of 100 μM [^3H]-farnesylpyrophosphoric acid (30 mCi/mmol, NEN) was added to the mixture to start a reaction. The reaction was continued at 37° C. for 10 minutes. 1 ml of ethanol was added to the resulting mixture to terminate the reaction and then 1 ml of distilled water and 3 ml of petroleum ether were added to the reaction solution, which was then shaken for 30 minutes. The water phase was separated from the oil phase, the water phase was frozen at −70° C. in dry ice/methanol and the radiative activity of the organic phase was measured using a liquid scintillator. Or the organic phase was evaporated to dryness using nitrogen gas and the residue was dissolved as a marker in 25 µl of chloroform containing squalene, farnesol and cholesterol. This sample was spotted on a TCL plate (Merck) and developed using heptane for 15 to 20 minutes. A band of squalene was cut from the plate to measure the radiative activity by using a liquid scintillation counter. The data was expressed by a concentration (IC50) at which 50% of the radiative activity of a control group was inhibited.
Method of the Preparation of a Rat Liver Microsome
The following operations were all carried out on ice and the centrifugation was performed at 4° C. The liver was excised from a male Spraugue-Dawly rat (hereinafter referred to as SD rat) (8 to 9 weeks age) and perfused with 1.15% potassium chloride to remove the blood. Then, the liver was minced using a forceps and the minced liver was homogenized using a Teflon homogenizer. The resulting sample was centrifuged at 16000×g twice for 15 minutes. The supernatant was further centrifuged at 105000×g for 60 minutes. The obtained deposit was determined as a microsome fraction, which was then suspended in a 25 mM tris-hydrochloric acid solution. The concentration of protein was measured quantitatively by a Bradford method and the concentration of protein was adjusted to 20 mg/ml by using the same solution. The resulting solution was stored at […].

| Molecule | IC50 [nM] |
| --- | --- |
| CO[C@@H]1CCN(c2ccc(C#C[C@@]3(O)CN4CCC3CC4)c(Cc3ccccc3)n2)C1=O [Example 144, (3R)-3-[2-Benzyl-6-[(3R)-3-methoxy-2-pyrrolidinone-1-yl]-3-pyridyl]ethynyl-3-quinuclidinol] | 2.6 |
| O[C@]1(C#Cc2cc(Cl)c(N3CCC4(C3)OCCO4)nc2Cc2ccccc2)CN2CCC1CC2 [Example 119, (3R)-3-[2-Benzyl-5-chloro-6-(3,3-ethylenedioxypyrrolidine-1-yl)-3-pyridyl]ethynyl-3-quinuclidinol] | 3.9 |
| OC1(C#Cc2cnc(-c3ccc4c(c3)OCO4)nc2Cc2ccccc2)CN2CCC1CC2 (stereo not drawn) [Example 19, 3-[4-Benzyl-2-(3,4-methylenedioxyphenyl)-5-pyrimidyl]ethynyl-3-quinuclidinol] | 10 |
| OC1(C#Cc2cnc(-c3ccc4c(c3)OCO4)cc2Cc2ccccc2)CN2CCC1CC2 (stereo not drawn) [Example 1, 3-[4-Benzyl-2-(3,4-methylenedioxyphenyl)-5-pyridyl]ethynyl-3-quinuclidinol] | 10 |
| CO[C@@H]1CN(c2ccc(C#C[C@@]3(O)CN4CCC3CC4)c(Cc3ccccc3)n2)C[C@H]1O [Example 10, (3R)-3-[2-Benzyl-6-[(3R,4R)-3-hydroxy-4-methoxypyrrolidine-1-yl]-3-pyridyl)ethynyl-3-quinuclidinol] | 2 |
| O=C1[C@H](O)CCN1c1ccc(C#C[C@@]2(O)CN3CCC2CC3)c(Cc2ccccc2)n1 [Example 142, (3R)-3-[2-Benzyl-6-[(3R)-3-hydroxy-2-pyrrolidinone-1-yl]-3-pyridyl]ethynyl-3-quinuclidinol] | 5 |
| OC1(C#Cc2cnc(-c3ccccn3)cc2Cc2ccccc2)CN2CCC1CC2 (stereo not drawn) [Example 2, 3-[4-Benzyl-2-(2-pyridyl)-5-pyridyl]ethynyl-3-quinuclidinol] | 20 |
| COC1CCN(c2ccc(C#CC3(O)CN4CCC3CC4)c(Cc3ccccc3)n2)CC1 (stereo not drawn) [Example 9, 3-[2-Benzyl-6-(4-methoxypiperidino)-3-pyridyl)ethynyl-3-quinuclidinol] | 34 |
| O[C@]1(C#Cc2cnc(-c3ccc4c(c3)OCO4)cc2Cc2ccccc2)CN2CCC1CC2 [Example 180, (3R)-3-[4-Benzyl-2-(3,4-methylenedioxyphenyl)-5-pyridyl]ethynyl-3-quinuclidinol] | 6.3 |
| CO[C@@H]1CN(c2ccc(C#C[C@@]3(O)CN4CCC3CC4)c(Cc3ccccc3)n2)C[C@H]1OC [Example 104, (3R)-3-[2-Benzyl-6-[(3R,4R)-3,4-dimethoxypyrrolidine-1-yl)-3-pyridyl]ethynyl-3-quinuclidinol] | 6.7 |
| 3-[4-Benzyl-2-(3-pyridyl)-5-pyridyl]ethynyl-3-quinuclidinol [Example 18] | 25 |
